Legend:
Parameters in all cases: scale not given here
ABUTH Velvetleaf [1] = test: Postemergence herbicidal evaluation, ABUTH; assay type: in vivo, Abutilon theophrasti, Medic.; details: postemergence spray, rated about two-three weeks after treatment
How it was run: (§1)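 Plants are raised for roughly two weeks, then treated postemergence with compound dispersed in acetone/water (80/20) plus 1.0% seed oil adjuvant, at rates of about 0.006 kg to 0.400 kg per hectare. After greenhouse care, damage is scored two to three weeks later.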

CASOB Sicklepod [2] = test: Postemergence herbicidal evaluation, CASOB; assay type: in vivo, Cassia obtusifolia, L.; details: postemergence spray, rated about two-three weeks after treatment
How it was run: as §1

GLXMAW Soybean, Williams [3] = test: Preemergence herbicidal evaluation, GLXMAW; assay type: in vivo, Glycine max, (L.) Merr. cv Williams; details: preemergence
How it was run: (§2)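 First, seed is blended with potting soil and sown over roughly an inch of soil per cup. Next, the surface is sprayed with an aqueous acetone solution delivering about 0.013–0.800 kg/ha. Finally, cups are grown in the greenhouse and rated after 4–5 weeks.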

SETVI Foxtail, Green [4] = test: Preemergence herbicidal evaluation, SETVI; assay type: in vivo, Setaria viridis, (L.) Beau; details: preemergence
How it was run: as §2

ECHOG Barnyardgrass [5] = test: Preemergence herbicidal evaluation, ECHOG; assay type: in vivo, Echinochloa crus-galli, (L.) Beau; details: preemergence
How it was run: as §2

[6] = test system: TRZAWR Wheat, Winter, cv Riband; test: Preemergence herbicidal evaluation, TRZAWR; assay type: in vivo, Triticum aestivum; details: preemergence
How it was run: as §2

SETVI Foxtail, Green [7] = test: Postemergence herbicidal evaluation, SETVI; assay type: in vivo, Setaria viridis, (L.) Beau; details: postemergence spray, rated about two-three weeks after treatment
How it was run: as §1

[8] = test system: CHEAL Lambsquarters, Common; test: Preemergence herbicidal evaluation, CHEAL; assay type: in vivo, Chenopodium album, L.; details: preemergence
How it was run: as §2

ORYSAT Rice, Tebonnet [9] = test: Postemergence herbicidal evaluation, ORYSAT; assay type: in vivo, Oryza sativa, (L.); details: postemergence spray, rated about two-three weeks after treatment
How it was run: as §1

GALAP Galium [10] = test: Preemergence herbicidal evaluation, GALAP; assay type: in vivo, Galium aparine; details: preemergence
How it was run: as §2

GLXMAW Soybean, Williams [11] = test: Postemergence herbicidal evaluation, GLXMAW; assay type: in vivo, Glycine max, (L.) Merr. cv Williams; details: postemergence spray, rated about two-three weeks after treatment
How it was run: as §1

ZEAMX Corn, Field [12] = test: Postemergence herbicidal evaluation, ZEAMX; assay type: in vivo, Zea mays, L. (Sammel-Bezeichnung); details: postemergence spray, rated about two-three weeks after treatment
How it was run: as §1

AMBEL Ragweed, Common [13] = test: Preemergence herbicidal evaluation, AMBEL; assay type: in vivo, Ambrosia artemisifolia, L.; details: preemergence
How it was run: as §2

[14] = test system: TRZAWR Wheat, Winter, cv Riband; test: Postemergence herbicidal evaluation, TRZAWR; assay type: in vivo, Triticum aestivum; details: postemergence spray, rated about two-three weeks after treatment
How it was run: as §1

ABUTH Velvetleaf [15] = test: Preemergence herbicidal evaluation, ABUTH; assay type: in vivo, Abutilon theophrasti, Medic.; details: preemergence
How it was run: as §2

[16] = test system: CHEAL Lambsquarters, Common; test: Postemergence herbicidal evaluation, CHEAL; assay type: in vivo, Chenopodium album, L.; details: postemergence spray, rated about two-three weeks after treatment
How it was run: as §1

[17] = test system: IPOHE Morningglory, Ivyleaf; test: Preemergence herbicidal evaluation, IPOHE; assay type: in vivo, Ipomoea hederacea, (L.) Jacq.; details: preemergence
How it was run: as §2

[18] = test system: IPOHE Morningglory, Ivyleaf; test: Postemergence herbicidal evaluation, IPOHE; assay type: in vivo, Ipomoea hederacea, (L.) Jacq.; details: postemergence spray, rated about two-three weeks after treatment
How it was run: as §1

ECHOG Barnyardgrass [19] = test: Postemergence herbicidal evaluation, ECHOG; assay type: in vivo, Echinochloa crus-galli, (L.) Beau; details: postemergence spray, rated about two-three weeks after treatment
How it was run: as §1

CASOB Sicklepod [20] = test: Preemergence herbicidal evaluation, CASOB; assay type: in vivo, Cassia obtusifolia, L.; details: preemergence
How it was run: as §2

ZEAMX Corn, Field [21] = test: Preemergence herbicidal evaluation, ZEAMX; assay type: in vivo, Zea mays, L. (Sammel-Bezeichnung); details: preemergence
How it was run: as §2

AMBEL Ragweed, Common [22] = test: Postemergence herbicidal evaluation, AMBEL; assay type: in vivo, Ambrosia artemisifolia, L.; details: postemergence spray, rated about two-three weeks after treatment
How it was run: as §1

ORYSAT Rice, Tebonnet [23] = test: Preemergence herbicidal evaluation, ORYSAT; assay type: in vivo, Oryza sativa, (L.); details: preemergence
How it was run: as §2

GALAP Galium [24] = test: Postemergence herbicidal evaluation, GALAP; assay type: in vivo, Galium aparine; details: postemergence spray, rated about two-three weeks after treatment
How it was run: as §1

COc1ccc(-n2nnc3cc(F)c(-n4c(=O)cc(C(F)(F)F)n(C)c4=O)cc32)c(C)c1 [Example 24]
Postemergence herbicidal rating ABUTH (ABUTH Velvetleaf [1]; 0.008 kg/ha): 3.0
Postemergence herbicidal rating ABUTH (ABUTH Velvetleaf [1]; 0.016 kg/ha): 9.0
Postemergence herbicidal rating ABUTH (ABUTH Velvetleaf [1]; 0.032 kg/ha): 9.0
Postemergence herbicidal rating ABUTH (ABUTH Velvetleaf [1]; 0.062 kg/ha): 9.0
Postemergence herbicidal rating CASOB (CASOB Sicklepod [2]; 0.008 kg/ha): 0.0
Postemergence herbicidal rating CASOB (CASOB Sicklepod [2]; 0.016 kg/ha): 0.0
Postemergence herbicidal rating CASOB (CASOB Sicklepod [2]; 0.032 kg/ha): 0.0
Postemergence herbicidal rating CASOB (CASOB Sicklepod [2]; 0.062 kg/ha): 0.0
GLXMAW herbicidal rating (GLXMAW Soybean, Williams [3]; rate 0.016 kg/ha): 0.0
GLXMAW herbicidal rating (GLXMAW Soybean, Williams [3]; rate 0.032 kg/ha): 1.0
GLXMAW herbicidal rating (GLXMAW Soybean, Williams [3]; rate 0.062 kg/ha): 2.0
GLXMAW herbicidal rating (GLXMAW Soybean, Williams [3]; rate 0.125 kg/ha): 5.0
SETVI herbicidal rating (SETVI Foxtail, Green [4]; rate 0.016 kg/ha): 0.0
SETVI herbicidal rating (SETVI Foxtail, Green [4]; rate 0.032 kg/ha): 0.0
SETVI herbicidal rating (SETVI Foxtail, Green [4]; rate 0.062 kg/ha): 9.0
SETVI herbicidal rating (SETVI Foxtail, Green [4]; rate 0.125 kg/ha): 9.0
ECHCG herbicidal rating (ECHOG Barnyardgrass [5]; rate 0.016 kg/ha): 0.0
ECHCG herbicidal rating (ECHOG Barnyardgrass [5]; rate 0.032 kg/ha): 0.0
ECHCG herbicidal rating (ECHOG Barnyardgrass [5]; rate 0.062 kg/ha): 3.0
ECHCG herbicidal rating (ECHOG Barnyardgrass [5]; rate 0.125 kg/ha): 7.0
TRZAWR herbicidal rating ([6]; rate 0.016 kg/ha): 0.0
TRZAWR herbicidal rating ([6]; rate 0.032 kg/ha): 0.0
TRZAWR herbicidal rating ([6]; rate 0.062 kg/ha): 1.0
TRZAWR herbicidal rating ([6]; rate 0.125 kg/ha): 1.0
Postemergence herbicidal rating SETVI (SETVI Foxtail, Green [7]; 0.008 kg/ha): 0.0
Postemergence herbicidal rating SETVI (SETVI Foxtail, Green [7]; 0.016 kg/ha): 0.0
Postemergence herbicidal rating SETVI (SETVI Foxtail, Green [7]; 0.032 kg/ha): 0.0
Postemergence herbicidal rating SETVI (SETVI Foxtail, Green [7]; 0.062 kg/ha): 0.0
CHEAL herbicidal rating ([8]; rate 0.016 kg/ha): 0.0
CHEAL herbicidal rating ([8]; rate 0.032 kg/ha): 0.0
CHEAL herbicidal rating ([8]; rate 0.062 kg/ha): 9.0
CHEAL herbicidal rating ([8]; rate 0.125 kg/ha): 9.0
Postemergence herbicidal rating ORYSAT (ORYSAT Rice, Tebonnet [9]; 0.008 kg/ha): 2.0
Postemergence herbicidal rating ORYSAT (ORYSAT Rice, Tebonnet [9]; 0.016 kg/ha): 2.0
Postemergence herbicidal rating ORYSAT (ORYSAT Rice, Tebonnet [9]; 0.032 kg/ha): 2.0
Postemergence herbicidal rating ORYSAT (ORYSAT Rice, Tebonnet [9]; 0.062 kg/ha): 2.5
GALAP herbicidal rating (GALAP Galium [10]; rate 0.016 kg/ha): 0.0
GALAP herbicidal rating (GALAP Galium [10]; rate 0.032 kg/ha): 0.0
GALAP herbicidal rating (GALAP Galium [10]; rate 0.062 kg/ha): 0.0
Postemergence herbicidal rating GLXMAW (GLXMAW Soybean, Williams [11]; 0.008 kg/ha): 3.0
Postemergence herbicidal rating GLXMAW (GLXMAW Soybean, Williams [11]; 0.016 kg/ha): 3.5
Postemergence herbicidal rating GLXMAW (GLXMAW Soybean, Williams [11]; 0.032 kg/ha): 4.0
Postemergence herbicidal rating GLXMAW (GLXMAW Soybean, Williams [11]; 0.062 kg/ha): 4.0
Postemergence herbicidal rating ZEAMX (ZEAMX Corn, Field [12]; 0.008 kg/ha): 3.5
Postemergence herbicidal rating ZEAMX (ZEAMX Corn, Field [12]; 0.016 kg/ha): 3.5
Postemergence herbicidal rating ZEAMX (ZEAMX Corn, Field [12]; 0.032 kg/ha): 3.5
Postemergence herbicidal rating ZEAMX (ZEAMX Corn, Field [12]; 0.062 kg/ha): 4.5
AMBEL herbicidal rating (AMBEL Ragweed, Common [13]; rate 0.016 kg/ha): 0.0
AMBEL herbicidal rating (AMBEL Ragweed, Common [13]; rate 0.032 kg/ha): 0.0
AMBEL herbicidal rating (AMBEL Ragweed, Common [13]; rate 0.062 kg/ha): 0.0
AMBEL herbicidal rating (AMBEL Ragweed, Common [13]; rate 0.125 kg/ha): 0.0
Postemergence herbicidal rating TRZAWR ([14]; 0.008 kg/ha): 2.5
Postemergence herbicidal rating TRZAWR ([14]; 0.016 kg/ha): 2.5
Postemergence herbicidal rating TRZAWR ([14]; 0.032 kg/ha): 2.5
Postemergence herbicidal rating TRZAWR ([14]; 0.062 kg/ha): 3.5
ABUTH herbicidal rating (ABUTH Velvetleaf [15]; rate 0.016 kg/ha): 0.0
ABUTH herbicidal rating (ABUTH Velvetleaf [15]; rate 0.032 kg/ha): 6.0
ABUTH herbicidal rating (ABUTH Velvetleaf [15]; rate 0.062 kg/ha): 9.0
ABUTH herbicidal rating (ABUTH Velvetleaf [15]; rate 0.125 kg/ha): 9.0
Postemergence herbicidal rating CHEAL ([16]; 0.008 kg/ha): 3.0
Postemergence herbicidal rating CHEAL ([16]; 0.016 kg/ha): 3.0
Postemergence herbicidal rating CHEAL ([16]; 0.032 kg/ha): 3.0
Postemergence herbicidal rating CHEAL ([16]; 0.062 kg/ha): 4.0
IPOHE herbicidal rating ([17]; rate 0.016 kg/ha): 0.0
IPOHE herbicidal rating ([17]; rate 0.032 kg/ha): 0.0
IPOHE herbicidal rating ([17]; rate 0.062 kg/ha): 0.0
IPOHE herbicidal rating ([17]; rate 0.125 kg/ha): 0.0
Postemergence herbicidal rating IPOHE ([18]; 0.008 kg/ha): 0.0
Postemergence herbicidal rating IPOHE ([18]; 0.016 kg/ha): 3.0
Postemergence herbicidal rating IPOHE ([18]; 0.032 kg/ha): 4.0
Postemergence herbicidal rating IPOHE ([18]; 0.062 kg/ha): 4.0
Postemergence herbicidal rating ECHCG (ECHOG Barnyardgrass [19]; 0.008 kg/ha): 0.0
Postemergence herbicidal rating ECHCG (ECHOG Barnyardgrass [19]; 0.016 kg/ha): 0.0
Postemergence herbicidal rating ECHCG (ECHOG Barnyardgrass [19]; 0.032 kg/ha): 0.0
Postemergence herbicidal rating ECHCG (ECHOG Barnyardgrass [19]; 0.062 kg/ha): 0.0
CASOB herbicidal rating (CASOB Sicklepod [20]; rate 0.016 kg/ha): 0.0
CASOB herbicidal rating (CASOB Sicklepod [20]; rate 0.032 kg/ha): 0.0
CASOB herbicidal rating (CASOB Sicklepod [20]; rate 0.062 kg/ha): 0.0
CASOB herbicidal rating (CASOB Sicklepod [20]; rate 0.125 kg/ha): 0.0
ZEAMX herbicidal rating (ZEAMX Corn, Field [21]; rate 0.016 kg/ha): 0.0
ZEAMX herbicidal rating (ZEAMX Corn, Field [21]; rate 0.032 kg/ha): 0.0
ZEAMX herbicidal rating (ZEAMX Corn, Field [21]; rate 0.062 kg/ha): 4.0
ZEAMX herbicidal rating (ZEAMX Corn, Field [21]; rate 0.125 kg/ha): 6.0
Postemergence herbicidal rating AMBEL (AMBEL Ragweed, Common [22]; 0.008 kg/ha): 0.0
Postemergence herbicidal rating AMBEL (AMBEL Ragweed, Common [22]; 0.016 kg/ha): 0.0
Postemergence herbicidal rating AMBEL (AMBEL Ragweed, Common [22]; 0.032 kg/ha): 0.0
Postemergence herbicidal rating AMBEL (AMBEL Ragweed, Common [22]; 0.062 kg/ha): 2.0
ORYSAT herbicidal rating (ORYSAT Rice, Tebonnet [23]; rate 0.016 kg/ha): 0.0
ORYSAT herbicidal rating (ORYSAT Rice, Tebonnet [23]; rate 0.032 kg/ha): 0.0
ORYSAT herbicidal rating (ORYSAT Rice, Tebonnet [23]; rate 0.062 kg/ha): 1.0
ORYSAT herbicidal rating (ORYSAT Rice, Tebonnet [23]; rate 0.125 kg/ha): 1.0
Postemergence herbicidal rating GALAP (GALAP Galium [24]; 0.008 kg/ha): 0.0
Postemergence herbicidal rating GALAP (GALAP Galium [24]; 0.016 kg/ha): 1.0
Postemergence herbicidal rating GALAP (GALAP Galium [24]; 0.032 kg/ha): 2.0
Postemergence herbicidal rating GALAP (GALAP Galium [24]; 0.062 kg/ha): 3.0
